In publication PMC3170524 (Physiological research / Academia Scientiarum Bohemoslovaca, 2010):
Where a chain is given by its changes, count along the chain named.

What was measured:
Test in all cases: whole-cell patch clamp, peak current dose-response
Type in all cases: cell-based
[1] = biological target: T1, rat P2X4R (Rattus norvegicus, UniProt P51577, C116T/C165T)
T1 sequence (P51577 1-388 C116T/C165T): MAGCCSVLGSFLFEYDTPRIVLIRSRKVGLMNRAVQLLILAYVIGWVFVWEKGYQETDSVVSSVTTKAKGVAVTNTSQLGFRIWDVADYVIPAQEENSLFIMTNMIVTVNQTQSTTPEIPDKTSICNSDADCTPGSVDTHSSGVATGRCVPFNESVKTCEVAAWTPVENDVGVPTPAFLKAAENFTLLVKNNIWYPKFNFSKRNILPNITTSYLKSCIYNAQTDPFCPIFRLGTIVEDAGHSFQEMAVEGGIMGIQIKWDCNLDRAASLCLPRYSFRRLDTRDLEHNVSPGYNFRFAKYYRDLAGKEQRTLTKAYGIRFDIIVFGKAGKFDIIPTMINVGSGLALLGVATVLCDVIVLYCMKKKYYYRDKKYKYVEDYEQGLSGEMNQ

[2] = biological target: T2, rat P2X4R (Rattus norvegicus, UniProt P51577, C159A)
T2 sequence (P51577 1-388 C159A): T1 sequence (P51577 1-388 C116T/C165T) with T116C, C159A, T165C

[3] = biological target: T3, rat P2X4R (Rattus norvegicus, UniProt P51577, C126T/C149T)
T3 sequence (P51577 1-388 C126T/C149T): T1 sequence (P51577 1-388 C116T/C165T) with T116C, C126T, C149T, T165C

[4] = biological target: T4, rat P2X4R (Rattus norvegicus, UniProt P51577, C165A)
T4 sequence (P51577 1-388 C165A): T1 sequence (P51577 1-388 C116T/C165T) with T116C, T165A

[5] = biological target: T5, rat P2X4R (Rattus norvegicus, UniProt P51577, C261A)
T5 sequence (P51577 1-388 C261A): T1 sequence (P51577 1-388 C116T/C165T) with T116C, T165C, C261A

[6] = biological target: T6, rat P2X4R (Rattus norvegicus, UniProt P51577, C165T)
T6 sequence (P51577 1-388 C165T): T1 sequence (P51577 1-388 C116T/C165T) with T116C

[7] = biological target: T7, rat P2X4R (Rattus norvegicus, UniProt P51577, C116A)
T7 sequence (P51577 1-388 C116A): T1 sequence (P51577 1-388 C116T/C165T) with T116A, T165C

EC50 [1]: 57 ± 19 µM
EC50 [2]: 5.1 ± 1.4 µM
EC50 [3]: 65 ± 24 µM
EC50 [4]: 42 ± 8.9 µM
EC50 [5]: 5.5 ± 1.7 µM
EC50 [6]: 45 ± 3.8 µM
EC50 [7]: 27 ± 6.5 µM
Structure (SMILES): Nc1ncnc2c1ncn2[C@@H]1O[C@H](COP(=O)(O)OP(=O)(O)OP(=O)(O)O)[C@@H](O)[C@H]1O [ATP]
